Assay results reported in publication PMC3113660 (Journal of medicinal chemistry, 2010).
Where a name gives a salt, the structure may show the parent alone. One block for each compound: values may come before it.

Experiments:
[1] = tested on: Trypanosoma brucei rhodesiense (STIB900); experiment: In vitro growth inhibition assay of T. brucei rhodesiense; type: cell-based
[2] = tested on: Plasmodium falciparum (K1, resistant to chloroquine); experiment: In vitro growth inhibition assay of P. falciparum; type: cell-based; settings: for IC50: Plasmodium falciparum, K1, read-out: antiplasmodial IC50, P. falciparum, in vitro; for fold more active against P. falciparum: relative to diimidazoline 3

SMILES: CC(C)NC(=N)c1cccc(-c2cn(-c3cccc(C(=N)NC(C)C)c3)nn2)c1.Cl.Cl [Compound 2, 1,4-Bis(3-N-isopropylamidinophenyl)-1H-1,2,3-triazole Dihydrochloride]
fold less active against T. brucei rhodesiense ([1]; relative to diamidine 1): ~170 fold

SMILES: Cl.Cl.c1cc(C2=NCCN2)cc(-c2cn(-c3cccc(C4=NCCN4)c3)nn2)c1 [Compound 3, 1,4-Bis[3-(4,5-dihydro-1H-imidazol-2-yl)phenyl]-1H-1,2,3-triazole Dihydrochloride]
fold less active against T. brucei rhodesiense ([1]; relative to diamidine 1): ~170 fold

SMILES: COc1ccc(C(=N)N)cc1-n1cc(-c2cccc(C(=N)N)c2)nn1.Cl.Cl [Compound 4, 1-(5-Amidino-2-methoxyphenyl)-4-(3-amidinophenyl)-1H-1,2,3-triazole Dihydrochloride]
IC50 [2]: < 58 nM
fold as active against T. brucei rhodesiense ([1]; relative to 2-O-demethylated analogue 10): 1000 fold

IC50 [2]: < 58 nM
SMILES: COc1ccc(C2=NCCN2)cc1-n1cc(-c2cccc(C3=NCCN3)c2)nn1.Cl.Cl [Compound 6, 1-[5-(4,5-Dihydro-1H-imidazol-2-yl)-2-methoxyphenyl]-4-[3-(4,5-dihydro-1H-imidazol-2-yl)phenyl]-1H-1,2,3-triazole Dihydrochloride]
fold more active against P. falciparum [2]: 12 fold
fold as active against T. brucei rhodesiense ([1]; relative to 2-O-demethylated analogue 12): 13 fold

IC50 [2]: < 58 nM
SMILES: COc1ccc(C(=N)N)cc1-c1cn(-c2cccc(C(=N)N)c2)nn1.Cl.Cl [Compound 7, 4-(5-Amidino-2-methoxyphenyl)-1-(3-amidinophenyl)-1H-1,2,3-triazole Dihydrochloride]
fold less active against T. brucei rhodesiense ([1]; relative to diamidine 1): 20 fold

SMILES: Cl.Cl.N=C(N)c1cccc(-c2cn(-c3cc(C(=N)N)ccc3O)nn2)c1 [Compound 10, 1-(5-Amidino-2-hydroxyphenyl)-4-(3-amidinophenyl)-1H-1,2,3-triazole Dihydrochloride]
fold less potent against P. falciparum ([2]; relative to 2-methoxy analogue 4): 320 fold
fold less potent against P. falciparum ([2]; relative to dication 1): 425 fold
fold less active against T. brucei rhodesiense ([1]; relative to diamidine 1): 600 fold

SMILES: CC(C)NC(=N)c1cccc(-c2cn(-c3cc(C(=N)NC(C)C)ccc3O)nn2)c1.Cl.Cl [Compound 11, 1-(5-N-Isopropylamidino-2-hydroxyphenyl)-4-(3-N-isopropylamidinophenyl)-1H-1,2,3-triazole Dihydrochloride]
fold lower antiplasmodial activity ([2]; relative to congener 2): 7 fold
fold lower antiplasmodial activity ([2]; relative to congener 5): 6 fold

SMILES: Cl.Cl.Oc1ccc(C2=NCCN2)cc1-n1cc(-c2cccc(C3=NCCN3)c2)nn1 [Compound 12, 1-[5-(4,5-Dihydro-1H-imidazol-2-yl)-2-hydroxyphenyl]-4-[3-(4,5-dihydro-1H-imidazol-2-yl)phenyl]-1H-1,2,3-triazole Dihydrochloride]
fold less active against T. brucei rhodesiense ([1]; relative to diimidazoline 3): 7 fold

IC50 [2]: < 58 nM
SMILES: Cl.Cl.Oc1ccc(C2=NCCN2)cc1-c1cn(-c2cccc(C3=NCCN3)c2)nn1 [Compound 15, 4-[5-(4,5-Dihydro-1H-imidazol-2-yl)-2-hydroxyphenyl]-1-[3-(4,5-dihydro-1H-imidazol-2-yl)phenyl]-1H-1,2,3-triazole Dihydrochloride]
fold more active against P. falciparum [2]: 7 fold

SMILES: Cl.Cl.c1cc(C2=NCCN2)cc(-c2cn(-c3ccc(C4=NCCN4)cc3)nn2)c1 [Compound 18, 1-[4-(4,5-Dihydro-1H-imidazol-2-yl)phenyl]-4-(3-(4,5-dihydro-1H-imidazol-2-yl)phenyl)-1H-1,2,3-triazole Dihydrochloride]
fold less active against T. brucei rhodesiense ([1]; relative to diamidine 16): 25 fold

SMILES: COc1cc(C2=NCCN2)ccc1-n1cc(-c2cccc(C3=NCCN3)c2)nn1.Cl.Cl [Compound 21, 1-[4-(4,5-Dihydro-1H-imidazol-2-yl)-2-methoxyphenyl]-4-[3-(4,5-dihydro-1H-imidazol-2-yl)phenyl]-1H-1,2,3-triazole Dihydrochloride]
fold less active against T. brucei rhodesiense ([1]; relative to congener 19): 170 fold

IC50 [2]: < 58 nM
SMILES: COc1ccc(C2=NCCN2)cc1-c1cn(-c2ccc(C3=NCCN3)cc2)nn1 [Compound 24, 4-[5-(4,5-Dihydro-1H-imidazol-2-yl)-2-methoxyphenyl]-1-[4-(4,5-dihydro-1H-imidazol-2-yl)phenyl]-1H-1,2,3-triazole Dihydrochloride]

SMILES: Cl.Cl.N=C(N)c1cccc(-c2cn(-c3ccc(C(=N)N)cc3O)nn2)c1 [Compound 25, 1-(4-Amidino-2-hydroxyphenyl)-4-(3-amidinophenyl)-1H-1,2,3-triazole Dihydrochloride]
fold less active against T. brucei rhodesiense ([1]; relative to diamidine 16): ~22 fold

IC50 [2]: < 58 nM
SMILES: CC(C)NC(=N)c1ccc(-n2cc(-c3cc(C(=N)NC(C)C)ccc3O)nn2)cc1 [Compound 29, 4-(5-N-Isopropylamidino-2-hydroxyphenyl)-1-(4-N-isopropylamidinophenyl)-1H-1,2,3-triazole Dihydrochloride]

SMILES: Cl.Cl.c1cc(C2=NCCN2)cc(-n2cc(-c3ccc(C4=NCCN4)cc3)nn2)c1 [Compound 33, 1-[3-(4,5-Dihydro-1H-imidazol-2-yl)phenyl]-4-[4-(4,5-dihydro-1H-imidazol-2-yl)phenyl]-1H-1,2,3-triazole Dihydrochloride]
fold less active against T. brucei rhodesiense ([1]; relative to diamidine 31): 77 fold

SMILES: COc1ccc(C(=N)N)cc1-n1cc(-c2ccc(C(=N)N)cc2)nn1.Cl.Cl [Compound 34, 1-(5-Amidino-2-methoxyphenyl)-4-(4-amidinophenyl)-1H-1,2,3-triazole Dihydrochloride]
IC50 [2]: < 58 nM
fold less active against P. falciparum ([2]; relative to congener 31): 4 fold

SMILES: COc1ccc(C(=N)NC(C)C)cc1-n1cc(-c2ccc(C(=N)NC(C)C)cc2)nn1.Cl.Cl [Compound 35, 1-(5-N-Isopropylamidino-2-methoxyphenyl)-4-(4-N-isopropylamidinophenyl)-1H-1,2,3-triazole Dihydrochloride]
fold less active against P. falciparum ([2]; relative to bis(N-isopropyl)amidine 32): 5 fold

IC50 [2]: < 58 nM
SMILES: COc1ccc(C2=NCCN2)cc1-n1cc(-c2ccc(C3=NCCN3)cc2)nn1 [Compound 36, 1-[5-(4,5-Dihydro-1H-imidazol-2-yl)-2-methoxyphenyl]-4-[4-(4,5-dihydro-1H-imidazol-2-yl)phenyl]-1H-1,2,3-triazole Dihydrochloride]

SMILES: COc1cc(C2=NCCN2)ccc1-c1cn(-c2cccc(C3=NCCN3)c2)nn1.Cl.Cl [Compound 39, 4-[4-(4,5-Dihydro-1H-imidazol-2-yl)-2-methoxyphenyl]-1-[3-(4,5-dihydro-1H-imidazol-2-yl)phenyl]-1H-1,2,3-triazole Dihydrochloride]
fold less active against T. brucei rhodesiense ([1]; relative to diamidine 37): 804 fold

SMILES: Cl.Cl.N=C(N)c1ccc(-c2cn(-c3cc(C(=N)N)ccc3O)nn2)cc1 [Compound 40, 1-(5-Amidino-2-hydroxyphenyl)-4-(4-amidinophenyl)-1H-1,2,3-triazole Dihydrochloride]
fold less active against P. falciparum ([2]; relative to congener 31): 308 fold

SMILES: Cl.Cl.Oc1ccc(C2=NCCN2)cc1-n1cc(-c2ccc(C3=NCCN3)cc2)nn1 [Compound 42, 1-[5-(4,5-Dihydro-1H-imidazol-2-yl)-2-hydroxyphenyl]-4-[4-(4,5-dihydro-1H-imidazol-2-yl)phenyl]-1H-1,2,3-triazole Dihydrochloride]
fold less active against T. brucei rhodesiense ([1]; relative to diimidazoline 33): 43 fold

IC50 [2]: < 58 nM
SMILES: CC(C)NC(=N)c1cccc(-n2cc(-c3ccc(C(=N)NC(C)C)cc3O)nn2)c1 [Compound 44, 4-(4-N-Isopropylamidino-2-hydroxyphenyl)-1-(3-N-isopropylamidinophenyl)-1H-1,2,3-triazole Dihydrochloride]

IC50 [2]: < 58 nM
SMILES: Oc1cc(C2=NCCN2)ccc1-c1cn(-c2cccc(C3=NCCN3)c2)nn1 [Compound 45, 4-[4-(4,5-Dihydro-1H-imidazol-2-yl)-2-hydroxyphenyl]-1-[3-(4,5-dihydro-1H-imidazol-2-yl)phenyl]-1H-1,2,3-triazole Dihydrochloride]

IC50 [2]: < 58 nM
SMILES: c1cc(-c2cn(-c3ccc(C4=NCCN4)cc3)nn2)ccc1C1=NCCN1 [Compound 48, 1,4-Bis(4-(4,5-dihydro-1H-imidazol-2-yl)phenyl)-1H-1,2,3-triazole Dihydrochloride]

IC50 [2]: < 58 nM
SMILES: COc1cc(C(=N)N)ccc1-n1cc(-c2ccc(C(=N)N)cc2)nn1 [Compound 49, 1-(4-Amidino-2-methoxyphenyl)-4-(4-amidinophenyl)-1H-1,2,3-triazole Dihydrochloride]

IC50 [2]: < 58 nM
SMILES: COc1cc(C(=N)NC(C)C)ccc1-n1cc(-c2ccc(C(=N)NC(C)C)cc2)nn1 [Compound 50, 1-(4-N-Isopropylamidino-2-methoxyphenyl)-4-(4-N-isopropylamidinophenyl)-1H-1,2,3-triazole Dihydrochloride]

IC50 [2]: < 58 nM
SMILES: COc1cc(C2=NCCN2)ccc1-n1cc(-c2ccc(C3=NCCN3)cc2)nn1 [Compound 51, 1-[4-(4,5-Dihydro-1H-imidazol-2-yl)-2-methoxyphenyl]-4-[4-(4,5-dihydro-1H-imidazol-2-yl)phenyl]-1H-1,2,3-triazole Dihydrochloride]

IC50 [2]: < 58 nM
SMILES: COc1cc(C(=N)NC(C)C)ccc1-c1cn(-c2ccc(C(=N)NC(C)C)cc2)nn1 [Compound 53, 4-(4-N-Isopropylamidino-2-methoxyphenyl)-1-(4-N-isopropylamidinophenyl)-1H-1,2,3-triazole Dihydrochloride]

IC50 [2]: < 58 nM
SMILES: COc1cc(C2=NCCN2)ccc1-c1cn(-c2ccc(C3=NCCN3)cc2)nn1 [Compound 54, 4-[4-(4,5-Dihydro-1H-imidazol-2-yl)-2-methoxyphenyl]-1-[4-(4,5-dihydro-1H-imidazol-2-yl)phenyl]-1H-1,2,3-triazole Dihydrochloride]

SMILES: Cl.Cl.N=C(N)c1ccc(-c2cn(-c3ccc(C(=N)N)cc3O)nn2)cc1 [Compound 55, 1-(4-Amidino-2-hydroxyphenyl)-4-(4-amidinophenyl)-1H-1,2,3-triazole Dihydrochloride]
fold less active against T. brucei rhodesiense ([1]; relative to dication 46): 125 fold

IC50 [2]: < 58 nM
SMILES: Oc1cc(C2=NCCN2)ccc1-n1cc(-c2ccc(C3=NCCN3)cc2)nn1 [Compound 57, 1-[4-(4,5-Dihydro-1H-imidazol-2-yl)-2-hydroxyphenyl]-4-[4-(4,5-dihydro-1H-imidazol-2-yl)phenyl]-1H-1,2,3-triazole Dihydrochloride]

SMILES: CC(C)NC(=N)c1ccc(-n2cc(-c3ccc(C(=N)NC(C)C)cc3O)nn2)cc1.Cl.Cl [Compound 59, 4-(4-N-Isopropylamidino-2-hydroxyphenyl)-1-(4-N-isopropylamidinophenyl)-1H-1,2,3-triazole Dihydrochloride]
IC50 [2]: < 58 nM
